From US6740306B2, “Imidazotriazinone-containing compositions for nasal administration” (Bayer Aktiengesellschaft, priority 2002, dated 2004)
Entries after “also recorded” stand apart in the source; their conditions may differ.

Test: Benzyl alcohol as additive on nasal administration of cGMP PDE inhibitors
Format: in vivo

With `OCc1ccccc1` [benzyl alcohol] the “Ability to reduce or prevent the disadvantages occurring on nasal administration of cGMP PDE inhibitors” value was “unable to reduce or prevent the disadvantages; also recorded: unsuitable for overcoming the disadvantages” and the “Local irritation of the nasal mucosa” value was “led to local irritation of the nasal mucosa”.
